From paper doi:10.1101/2023.10.02.559746v1 (biorxiv, 2023) come the findings set out here.

As usually defined, the Kd is the equilibrium constant for the complex coming apart. High values mean lower affinity, low ones higher affinity.

Structures are written as SMILES.

The target of this experiment is T1, RALY (Homo sapiens, UniProt Q9UKM9).
T1 sequence (Q9UKM9 2-306): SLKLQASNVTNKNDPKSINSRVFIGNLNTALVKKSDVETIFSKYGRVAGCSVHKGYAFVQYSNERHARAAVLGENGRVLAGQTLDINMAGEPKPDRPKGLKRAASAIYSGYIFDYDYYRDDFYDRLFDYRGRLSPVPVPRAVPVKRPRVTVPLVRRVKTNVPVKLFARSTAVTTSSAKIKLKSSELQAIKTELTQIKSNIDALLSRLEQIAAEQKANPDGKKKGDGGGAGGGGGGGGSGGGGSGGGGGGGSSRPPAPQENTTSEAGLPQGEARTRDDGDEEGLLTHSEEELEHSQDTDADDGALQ
The experiment can be described thus: surface plasmon resonance imaging. The format is binding. In general terms: Surface plasmon resonance follows binding to a sensor surface in real time, without labels.

Take `CC(C)[C@H](CN)NC[C@H](C)NS(=O)(=O)c1ccc(C(C)(C)C)cc1` [2470-51, N-((S)-1-(((R)-1-amino-3-methylbutan-2-yl)amino)propan-2-yl)-4-(tert-butyl)benzenesulfonamide]: the Kd came out at 15.5 µM.
